Non-standard residues stand in square brackets, D forms with d. Residues, ends and D or L forms follow the SMILES beside them.
Columns and labels:
[1] = R. Strutt and coworkers; cited from earlier work
Horizon-LBA = type: in vitro ADME; conditions: not told
PAMPA = type: in vitro ADME

Cn1c(=O)c2c(ncn2C)n(C)c1=O [Caffeine]
permeability coefficient (DIB of DOPC, UV detector) [1]: 2.81 ± 0.0920 × 10^−4 cm s^−1

COc1ccc(C[C@@H]2NC(=O)[C@@H](CC(C)C)NC(=O)[C@H](C(C)C)NC(=O)[C@H](CC(C)C)NC(=O)[C@@H](CC(C)C)NC(=O)[C@H]3CCCN3C2=O)cc1 [Peptide 1] (cyclo(LV[dL]Y(Me)[dP][dL]))
Papp (Horizon-LBA): 300 ± 100 ×10⁻⁶ cm/s
Papp (PAMPA): 16.5 ± 0.9 ×10⁻⁶ cm/s
